{"source": "patent US20250195660A1", "about": "“INACTIVATING BACTERIA WITH ELECTRIC PULSES AND ANTIBIOTICS” (Purdue Research Foundation, priority 2018, published 2025)", "format_in_all_cases": "cell-based", "key": {"[1]": {"test_system": "methicillin resistant Staphylococcus aureus (USA300-0114 strain)", "assay": "Inactivation of MRSA by 300 ns electric pulses and/or antibiotics (CFU plating)", "description": "(§1) Except for rifampicin, the five other antibiotics in these examples primarily target gram-positive bacteria and are largely ineffective or not used against gram-negative bacteria in a clinical setting.\n(§2) A Blumlein pulsed generator consisting of two lines comprised of twelve 2000 pF capacitors connected by inductors produced 300 ns EPs with rise-times of 30 ns and fall-times of 35 ns at a repetition frequency of 1 Hz (12). The EPs were applied to a standard 2 mm gap electroporation cuvette (Dot Scientific R) filled with a solution containing the microorganisms. Used was a Luria broth of 0.5% salinity (5 grams of NaCl/Liter) for the solution to electrically match the resistance of the sample with the impedance of the pulse generator (11Ω) to prevent signal reflection. The voltage measurements were taken using a LeCroy PPE 20 kV high voltage probe with a 1000:1 attenuation recorded by a TeleDyne LeCroy® Waverunner 6 Zi Oscilloscope with a bandwidth of 4 GHZ.\nThe gram-negative strains included a carbapenem-resistant Escherichia coli (ATCC® BA-2452TM, New Delhi metallo-beta-lactamase NDM-1 positive.), Klebsiella pneumoniae (ATCC® BAA-2146TM NDM-I positive), and a gentamicin, streptomycin and sulfonamide resistant Pseudomonas aeruginosa (BEI Resources NR-31040). Assessed was the gram-positive strain of methicillin resistant Staphylococcus aureus (USA300-0114 strain), which is also resistant to erythromycin and tetracycline. Samples were cultured in Luria broth (LB Broth Lennox, powder microbial growth medium, SIGMA-ALDRICH®) by taking 25 mL of broth in a 50 mL sterile conical tube and incubating in a shaker for 16 h at 37° C. Samples were diluted 50% by adding 25 mL media to the incubated sample as we plated controls for each experiment and condition. […]\nRemoved was 20 μL from each cuvette and added to 180 μL of PBS in a 96-well dish in triplicate. […] These plates were then cultured overnight in an incubator at 37° C., and counted the next day."}, "[2]": {"test_system": "Klebsiella pneumoniae (ATCC BAA-2146 NDM-I positive)", "assay": "Inactivation of K. pneumoniae by 300 ns electric pulses and/or antibiotics (CFU plating)", "description": "as §1, §2\n(§3) The gram-negative strains included a carbapenem-resistant Escherichia coli (ATCC® BA-2452TM, New Delhi metallo-beta-lactamase NDM-1 positive.), Klebsiella pneumoniae (ATCC® BAA-2146TM NDM-I positive), and a gentamicin, streptomycin and sulfonamide resistant Pseudomonas aeruginosa (BEI Resources NR-31040). Assessed was the gram-positive strain of methicillin resistant Staphylococcus aureus (USA300-0114 strain), which is also resistant to erythromycin and tetracycline. Samples were cultured in Luria broth (LB Broth Lennox, powder microbial growth medium, SIGMA-ALDRICH®) by taking 25 mL of broth in a 50 mL sterile conical tube and incubating in a shaker for 16 h at 37° C. Samples were diluted 50% by adding 25 mL media to the incubated sample as we plated controls for each experiment and condition.\n(§4) Samples were treated in 2 mm gap cuvettes containing 365 μL of sample between the electrodes, with bio-grade mineral oil added on top of the electrode plates to prevent arcing.\n(§5) To establish a common baseline for comparing different NSEP parameters, we fixed the energy density U delivered to the cuvettes according to Formula (1) (above). For 300 ns EPs, 500 EPs at 20 kV/cm and 222 EPs at 30 kV/cm delivered the same energy to the sample.\n(§6) Tissue culture Petri dishes from VWR R (15 cm diameter, 10 mm height) were utilized for plating. Each plate was covered with 15 mL of Luria broth (Agar, microbiology tested powder, SIGMA-ALDRICH®), which was prepared by adding 20 g of LB Lennox (SIGMA-ALDRICH) and 15 g/L of agar to water prior to being autoclaved. The salinity of the agar was the same as the LB (0.5% NaCl) to minimize additional environmental stressors on the bacteria.\n(§7) Removed was 20 μL from each cuvette and added to 180 μL of PBS in a 96-well dish in triplicate. Each well was then diluted by a ratio of 10:1 five additional times by taking 20 μL of the diluted sample into subsequent wells using multi-channel pipettes (using fresh tips for each dilution). Plated were the six dilutions of each sample two times each by adding 4 μL from each well onto the Petri dish using a multi-channel pipette, which allowed the plating of all three replicates on the same plate to achieve n=6. These plates were then cultured overnight in an incubator at 37° C., and counted the next day."}, "[3]": {"test_system": "carbapenem-resistant Escherichia coli (ATCC BA-2452, NDM-1 positive)", "assay": "Inactivation of carbapenem-resistant E. coli by 300 ns electric pulses and/or antibiotics (CFU plating)", "details": "drug alone, 2 μg/mL or 20 μg/mL, no EPs", "description": "as §1, §2, §3, §4, §5, §6, §7"}, "[4]": {"test_system": "gentamicin, streptomycin and sulfonamide resistant Pseudomonas aeruginosa (BEI Resources NR-31040)", "assay": "Inactivation of P. aeruginosa by 300 ns electric pulses and/or antibiotics (CFU plating)", "details": "for additional inactivation of P. aeruginosa: 20 kV/cm NSEPs + 2 μg/mL or 20 μg/mL", "description": "as §1, §2, §3, §4, §5, §6, §7"}}}
{"compound": "C/C(=C\\C(=O)OCCCCCCCCC(=O)O)C[C@@H]1OC[C@H](C[C@@H]2O[C@H]2[C@@H](C)[C@H](C)O)[C@@H](O)[C@H]1O", "note": "[mupirocin]", "values": [{"measurement": "synergy (synergistic inactivation), MRSA", "setting": "[1]; 20 μg/mL + 30 kV/cm EPs", "result": "approximately 1.5 log"}, {"measurement": "MRSA 300 inactivation compared to using only the NSEPs", "setting": "[1]; 20 μg/mL + 30 kV/cm NSEPs", "result": "improvement"}, {"measurement": "inactivation of K. pneumoniae vs NSEPs", "setting": "[2]; 20 kV/cm NSEPs + 2 μg/mL", "result": "slight increase"}, {"measurement": "inactivation of K. pneumoniae vs NSEPs", "setting": "[2]; 20 kV/cm NSEPs + 20 μg/mL", "result": "an increase"}, {"measurement": "additional inactivation compared to NSEPs alone, K. pneumoniae", "setting": "[2]; 30 kV/cm NSEPs + 2 μg/mL", "result": 1, "unit": "log"}, {"measurement": "change in E. coli population", "setting": "[3]", "result": "induced changes"}, {"measurement": "additional inactivation of P. aeruginosa", "setting": "[4]", "result": "no additional inactivation"}]}
{"compound": "CC(=O)O[C@H]1C[C@@]2(C)[C@@H](C[C@@H](O)[C@H]3[C@@]4(C)CC[C@@H](O)[C@@H](C)[C@@H]4CC[C@@]32C)/C1=C(\\CCC=C(C)C)C(=O)O", "note": "[fusidic acid]", "values": [{"measurement": "change in E. coli population", "setting": "[3]", "result": "induced changes"}]}
{"compound": "CC(=O)NC[C@H]1CN(c2ccc(N3CCOCC3)c(F)c2)C(=O)O1", "note": "[linezolid]", "values": [{"measurement": "log reduction of K. pneumoniae / improvement over the NSEPs", "setting": "[2]; 30 kV/cm NSEPs + 20 μg/mL", "result": "did not induce a statistically significant improvement"}, {"measurement": "change in E. coli population", "setting": "[3]", "result": "induced changes"}, {"measurement": "synergy (FIG. 11B legend)", "setting": "[4]; 20 kV/cm EPs + 20 μg/mL", "result": "approximately 2 log"}, {"measurement": "additional inactivation of P. aeruginosa", "setting": "[4]", "result": "no additional inactivation"}]}
{"compound": "CC[C@H]1OC(=O)[C@H](C)[C@@H](O[C@H]2C[C@@](C)(OC)[C@@H](O)[C@H](C)O2)[C@H](C)[C@@H](O[C@@H]2O[C@H](C)C[C@H](N(C)C)[C@H]2O)[C@](C)(O)C[C@@H](C)C(=O)[C@H](C)[C@@H](O)[C@]1(C)O", "note": "[erythromycin]", "values": [{"measurement": "change in E. coli population", "setting": "[3]", "result": "induced changes"}, {"measurement": "additional inactivation of P. aeruginosa", "setting": "[4]", "result": "no additional inactivation"}]}
{"compound": "CN[C@H](CC(C)C)C(=O)N[C@H]1C(=O)N[C@@H](CC(N)=O)C(=O)N[C@H]2C(=O)N[C@H]3C(=O)N[C@H](C(=O)N[C@H](C(=O)O)c4cc(O)cc(O)c4-c4cc3ccc4O)[C@H](O)c3ccc(c(Cl)c3)Oc3cc2cc(c3O[C@@H]2O[C@H](CO)[C@@H](O)[C@H](O)[C@H]2O[C@H]2C[C@](C)(N)[C@H](O)[C@H](C)O2)Oc2ccc(cc2Cl)[C@H]1O", "note": "[vancomycin]", "values": [{"measurement": "additional inactivation compared to NSEPs alone, K. pneumoniae", "setting": "[2]; 30 kV/cm NSEPs + 2 μg/mL", "result": 1, "unit": "log"}, {"measurement": "log reduction of K. pneumoniae", "setting": "[2]; 30 kV/cm NSEPs + 2 μg/mL", "result": 5, "unit": "log"}, {"measurement": "change in E. coli population", "setting": "[3]", "result": "induced changes"}, {"measurement": "additional inactivation of P. aeruginosa", "setting": "[4]", "result": "no additional inactivation"}, {"measurement": "log reduction of P. aeruginosa", "setting": "[4]; 30 kV/cm NSEPs + 2 μg/mL", "result": "up to 2 log"}, {"measurement": "synergy, P. aeruginosa", "setting": "[4]; 30 kV/cm NSEPs + 2 μg/mL", "result": "synergy"}]}
